Results published in the supplement of paper PMC10307832.

What was measured:
Assay in all cases: relative viability (nuclei count vs DMSO), 5 days (fraction); higher = more cells survive
[1] = compound: CC1=CC(=NN1)NC2=CC(=NC(=N2)/C=C/C3=CC=CC=C3)N4CCN(CC4)C + CC1(C)CCC(c2ccc(Cl)cc2)=C(CN2CCN(c3ccc(C(=O)NS(=O)(=O)c4ccc(N[C@H](CCN5CCOCC5)CSc5ccccc5)c(S(=O)(=O)C(F)(F)F)c4)cc3)CC2)C1 [Navitoclax] (partner 0.5 µM)
Summary of the method: (§1)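 Cells from lung cancer lines were seeded into 1536-well plates and, one day later, dosed by pin tool. Treatments were either a single drug or a fixed dose of an anchor drug with five library-drug doses (not always all listed) in √10 steps. After 5 days, nuclei were stained in a one-step fixation (final 0.05% Triton X-100, 1% formaldehyde, 1 ug/ml Hoechst) and counted on 4× images, and relative viability is the treated-to-vehicle nuclei ratio, as the median of duplicate plates.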

[2] = compound: CC1=CC(=NN1)NC2=CC(=NC(=N2)/C=C/C3=CC=CC=C3)N4CCN(CC4)C + COc1cc2c(Oc3ccc(NC(=O)C4(C(=O)Nc5ccc(F)cc5)CC4)cc3F)ccnc2cc1OCCCN1CCOCC1 [Foretinib] (partner 0.25 µM)
Summary of the method: as §1

[3] = compound: CC1=CC(=NN1)NC2=CC(=NC(=N2)/C=C/C3=CC=CC=C3)N4CCN(CC4)C + Nc1nc2[nH]cc(CCc3ccc(C(=O)N[C@@H](CCC(=O)O)C(=O)O)cc3)c2c(=O)[nH]1 [Pemetrexed] (partner 0.2 µM)
Summary of the method: as §1

[4] = compound: CC1=CC(=NN1)NC2=CC(=NC(=N2)/C=C/C3=CC=CC=C3)N4CCN(CC4)C + O=C(CCCCCCC(=O)Nc1ccccc1)NO [Vorinostat] (partner 1 µM)
Summary of the method: as §1

Cell Line | relative viability ([1]; first compound 0.08 µM) | relative viability ([1]; first compound 0.253 µM) | relative viability ([1]; first compound 0.8 µM) | relative viability ([1]; first compound 2.53 µM) | relative viability ([1]; first compound 8 µM) | relative viability ([2]; first compound 0.08 µM) | relative viability ([2]; first compound 0.253 µM) | relative viability ([2]; first compound 0.8 µM) | relative viability ([2]; first compound 2.53 µM) | relative viability ([2]; first compound 8 µM) | relative viability ([3]; first compound 0.08 µM) | relative viability ([3]; first compound 0.253 µM) | relative viability ([3]; first compound 0.8 µM) | relative viability ([3]; first compound 2.53 µM) | relative viability ([3]; first compound 8 µM) | relative viability ([4]; first compound 0.08 µM) | relative viability ([4]; first compound 0.253 µM) | relative viability ([4]; first compound 0.8 µM) | relative viability ([4]; first compound 2.53 µM) | relative viability ([4]; first compound 8 µM)
NCI-H2228 | 1.11 | 0.893 | 0.747 | 0.0829 | 0.0768 | 0.692 | 0.953 | 0.618 | 0.102 | 0.0419 | 0.306 | 0.309 | 0.276 | 0.0818 | 0.055 | 0.778 | 0.647 | 0.328 | 0.0662 | 0.0606
HOP-62 | 0.903 | 1.27 | 1.03 | 1 | 0.124 | 1.14 | 1.13 | 1.04 | 0.739 | 0.195 | 0.364 | 0.328 | 0.288 | 0.294 | 0.182 | 0.603 | 0.566 | 0.637 | 0.387 | 0.129
NCI-H2347 | 0.762 | 0.871 | 0.912 | 0.496 | 0.361 | 0.554 | 1.44 | 1.21 | 0.857 | 0.325 | 0.418 | 0.415 | 0.447 | 0.397 | 0.379 | 0.593 | 0.686 | 0.583 | 0.44 | 0.262
NCI-H2087 | 0.974 | 0.923 | 1.11 | 0.247 | 0.122 | 1.05 | 1.14 | 1.02 | 0.336 | 0.111 | 0.63 | 0.652 | 0.652 | 0.566 | 0.162 | 0.697 | 0.954 | 0.72 | 0.324 | 0.141
EPLC-272H | 1.07 | 1.32 | 0.987 | 0.598 | 0.339 | 0.639 | 0.708 | 0.4 | 0.171 | 0.0935 | 0.329 | 0.363 | 0.342 | 0.104 | 0.136 | 0.472 | 0.488 | 0.401 | 0.141 | 0.0816
LXF-289 | 0.924 | 0.966 | 0.922 | 0.772 | 0.325 | 0.996 | 1.02 | 0.873 | 0.812 | 0.194 | 0.872 | 0.874 | 0.895 | 0.615 | 0.444 | 0.742 | 0.759 | 0.603 | 0.252 | 0.113
COR-L23 | 1.02 | 1.07 | 0.884 | 0.302 | 0.0578 | 0.967 | 1.01 | 0.904 | 0.211 | 0.107 | 0.202 | 0.203 | 0.179 | 0.166 | 0.105 | 0.417 | 0.446 | 0.195 | 0.0754 | 0.087
RERF-LC-KJ | 1.05 | 1.01 | 0.764 | 0.361 | 0.189 | 0.846 | 0.93 | 0.824 | 0.744 | 0.586 | 0.439 | 0.484 | 0.484 | 0.397 | 0.224 | 0.523 | 0.73 | 0.577 | 0.406 | 0.301
